Reference: the NIST ThermoML archive (doi:10.1021/je0498208)
± gives the expanded uncertainty stated by the source.

Experiment: xn = mol fraction of the nth substance listed
Details: Liquid; for viscosity: 101 kPa; for mass density: 101.3 kPa

Compound: O=CN1CCOCC1 [N-formylmorpholine] + O
- viscosity (298.15 K, x1 = 0.0499): 1.45 ± 0.04 mPa·s
- viscosity (298.15 K, x1 = 0.1007): 2.22 ± 0.06 mPa·s
- viscosity (298.15 K, x1 = 0.1976): 3.82 ± 0.11 mPa·s
- viscosity (298.15 K, x1 = 0.3006): 5.05 ± 0.14 mPa·s
- viscosity (298.15 K, x1 = 0.3917): 5.95 ± 0.17 mPa·s
- viscosity (298.15 K, x1 = 0.5001): 6.53 ± 0.18 mPa·s
- viscosity (298.15 K, x1 = 0.5834): 6.81 ± 0.19 mPa·s
- viscosity (298.15 K, x1 = 0.6969): 7.25 ± 0.2 mPa·s
- viscosity (298.15 K, x1 = 0.7942): 7.27 ± 0.2 mPa·s
- viscosity (298.15 K, x1 = 0.9047): 7.53 ± 0.21 mPa·s
- viscosity (298.15 K, x1 = 0.9493): 7.7 ± 0.22 mPa·s
- viscosity (298.15 K, x1 = 1): 7.87 ± 0.22 mPa·s
- mass density (298.15 K, x1 = 0.0499): 1038.7 ± 0.18 kg/m3
- mass density (298.15 K, x1 = 0.1007): 1067.03 ± 0.22 kg/m3
- mass density (298.15 K, x1 = 0.1976): 1099.55 ± 0.31 kg/m3
- mass density (298.15 K, x1 = 0.3006): 1117.88 ± 0.42 kg/m3
- mass density (298.15 K, x1 = 0.3917): 1127.34 ± 0.51 kg/m3
- mass density (298.15 K, x1 = 0.5001): 1134.34 ± 0.63 kg/m3
- mass density (298.15 K, x1 = 0.5834): 1137.94 ± 0.72 kg/m3
- mass density (298.15 K, x1 = 0.6969): 1141.28 ± 0.85 kg/m3
- mass density (298.15 K, x1 = 0.7942): 1143.43 ± 0.95 kg/m3
- mass density (298.15 K, x1 = 0.9047): 1145.19 ± 1.1 kg/m3
- mass density (298.15 K, x1 = 0.9493): 1145.97 ± 1.1 kg/m3
- mass density (298.15 K, x1 = 1): 1146.62 ± 1.2 kg/m3
- viscosity (303.15 K, x1 = 0.0499): 1.29 ± 0.04 mPa·s
- viscosity (303.15 K, x1 = 0.1007): 1.85 ± 0.05 mPa·s
- viscosity (303.15 K, x1 = 0.1976): 3.33 ± 0.1 mPa·s
- viscosity (303.15 K, x1 = 0.3006): 4.31 ± 0.12 mPa·s
- viscosity (303.15 K, x1 = 0.3917): 5.04 ± 0.14 mPa·s
- viscosity (303.15 K, x1 = 0.5001): 5.54 ± 0.16 mPa·s
- viscosity (303.15 K, x1 = 0.5834): 5.79 ± 0.16 mPa·s
- viscosity (303.15 K, x1 = 0.6969): 6.02 ± 0.17 mPa·s
- viscosity (303.15 K, x1 = 0.7942): 6.21 ± 0.18 mPa·s
- viscosity (303.15 K, x1 = 0.9047): 6.46 ± 0.19 mPa·s
- viscosity (303.15 K, x1 = 0.9493): 6.62 ± 0.19 mPa·s
- viscosity (303.15 K, x1 = 1): 6.75 ± 0.2 mPa·s
- mass density (303.15 K, x1 = 0.0499): 1036.24 ± 0.18 kg/m3
- mass density (303.15 K, x1 = 0.1007): 1063.95 ± 0.21 kg/m3
- mass density (303.15 K, x1 = 0.1976): 1095.78 ± 0.31 kg/m3
- mass density (303.15 K, x1 = 0.3006): 1113.82 ± 0.41 kg/m3
- mass density (303.15 K, x1 = 0.3917): 1123.11 ± 0.51 kg/m3
- mass density (303.15 K, x1 = 0.5001): 1130.03 ± 0.63 kg/m3
- mass density (303.15 K, x1 = 0.5834): 1133.6 ± 0.72 kg/m3
- mass density (303.15 K, x1 = 0.6969): 1136.91 ± 0.84 kg/m3
- mass density (303.15 K, x1 = 0.7942): 1139.05 ± 0.95 kg/m3
- mass density (303.15 K, x1 = 0.9047): 1140.81 ± 1.1 kg/m3
- mass density (303.15 K, x1 = 0.9493): 1141.6 ± 1.1 kg/m3
- mass density (303.15 K, x1 = 1): 1142.26 ± 1.2 kg/m3
- viscosity (313.15 K, x1 = 0.0499): 1.038 ± 0.031 mPa·s
- viscosity (313.15 K, x1 = 0.1007): 1.52 ± 0.05 mPa·s
- viscosity (313.15 K, x1 = 0.1976): 2.44 ± 0.07 mPa·s
- viscosity (313.15 K, x1 = 0.3006): 3.23 ± 0.09 mPa·s
- viscosity (313.15 K, x1 = 0.3917): 3.77 ± 0.11 mPa·s
- viscosity (313.15 K, x1 = 0.5001): 4.19 ± 0.12 mPa·s
- viscosity (313.15 K, x1 = 0.5834): 4.33 ± 0.13 mPa·s
- viscosity (313.15 K, x1 = 0.6969): 4.55 ± 0.13 mPa·s
- viscosity (313.15 K, x1 = 0.7942): 4.7 ± 0.14 mPa·s
- viscosity (313.15 K, x1 = 0.9047): 4.9 ± 0.15 mPa·s
- viscosity (313.15 K, x1 = 0.9493): 5.03 ± 0.15 mPa·s
- viscosity (313.15 K, x1 = 1): 5.13 ± 0.15 mPa·s
- mass density (313.15 K, x1 = 0.0499): 1030.93 ± 0.17 kg/m3
- mass density (313.15 K, x1 = 0.1007): 1057.44 ± 0.21 kg/m3
- mass density (313.15 K, x1 = 0.1976): 1088.06 ± 0.3 kg/m3
- mass density (313.15 K, x1 = 0.3006): 1105.52 ± 0.41 kg/m3
- mass density (313.15 K, x1 = 0.3917): 1114.62 ± 0.5 kg/m3
- mass density (313.15 K, x1 = 0.5001): 1121.35 ± 0.62 kg/m3
- mass density (313.15 K, x1 = 0.5834): 1124.87 ± 0.71 kg/m3
- mass density (313.15 K, x1 = 0.6969): 1128.16 ± 0.83 kg/m3
- mass density (313.15 K, x1 = 0.7942): 1130.3 ± 0.94 kg/m3
- mass density (313.15 K, x1 = 0.9047): 1132.07 ± 1.1 kg/m3
- mass density (313.15 K, x1 = 0.9493): 1132.87 ± 1.1 kg/m3
- mass density (313.15 K, x1 = 1): 1133.53 ± 1.2 kg/m3
- viscosity (323.15 K, x1 = 0.0499): 0.854 ± 0.026 mPa·s
- viscosity (323.15 K, x1 = 0.1007): 1.23 ± 0.04 mPa·s
- viscosity (323.15 K, x1 = 0.1976): 1.95 ± 0.06 mPa·s
- viscosity (323.15 K, x1 = 0.3006): 2.5 ± 0.07 mPa·s
- viscosity (323.15 K, x1 = 0.3917): 2.88 ± 0.08 mPa·s
- viscosity (323.15 K, x1 = 0.5001): 3.21 ± 0.09 mPa·s
- viscosity (323.15 K, x1 = 0.5834): 3.35 ± 0.1 mPa·s
- viscosity (323.15 K, x1 = 0.6969): 3.53 ± 0.1 mPa·s
- viscosity (323.15 K, x1 = 0.7942): 3.67 ± 0.11 mPa·s
- viscosity (323.15 K, x1 = 0.9047): 3.86 ± 0.12 mPa·s
- viscosity (323.15 K, x1 = 0.9493): 4.01 ± 0.12 mPa·s
- viscosity (323.15 K, x1 = 1): 4.03 ± 0.12 mPa·s
- mass density (323.15 K, x1 = 0.0499): 1025.15 ± 0.17 kg/m3
- mass density (323.15 K, x1 = 0.1007): 1050.64 ± 0.21 kg/m3
- mass density (323.15 K, x1 = 0.1976): 1080.16 ± 0.3 kg/m3
- mass density (323.15 K, x1 = 0.3006): 1097.1 ± 0.4 kg/m3
- mass density (323.15 K, x1 = 0.3917): 1105.98 ± 0.5 kg/m3
- mass density (323.15 K, x1 = 0.5001): 1114.62 ± 0.62 kg/m3
- mass density (323.15 K, x1 = 0.5834): 1116.08 ± 0.7 kg/m3
- mass density (323.15 K, x1 = 0.6969): 1119.37 ± 0.83 kg/m3
- mass density (323.15 K, x1 = 0.7942): 1121.52 ± 0.93 kg/m3
- mass density (323.15 K, x1 = 0.9047): 1123.33 ± 1.1 kg/m3
- mass density (323.15 K, x1 = 0.9493): 1124.14 ± 1.1 kg/m3
- mass density (323.15 K, x1 = 1): 1124.82 ± 1.2 kg/m3
- viscosity (333.15 K, x1 = 0.0499): 0.715 ± 0.022 mPa·s
- viscosity (333.15 K, x1 = 0.1007): 1.018 ± 0.031 mPa·s
- viscosity (333.15 K, x1 = 0.1976): 1.57 ± 0.05 mPa·s
- viscosity (333.15 K, x1 = 0.3006): 2.1 ± 0.06 mPa·s
- viscosity (333.15 K, x1 = 0.3917): 2.41 ± 0.07 mPa·s
- viscosity (333.15 K, x1 = 0.5001): 2.65 ± 0.08 mPa·s
- viscosity (333.15 K, x1 = 0.5834): 2.73 ± 0.08 mPa·s
- viscosity (333.15 K, x1 = 0.6969): 2.84 ± 0.08 mPa·s
- viscosity (333.15 K, x1 = 0.7942): 2.96 ± 0.09 mPa·s
- viscosity (333.15 K, x1 = 0.9047): 3.2 ± 0.1 mPa·s
- viscosity (333.15 K, x1 = 0.9493): 3.21 ± 0.1 mPa·s
- viscosity (333.15 K, x1 = 1): 3.25 ± 0.1 mPa·s
- mass density (333.15 K, x1 = 0.0499): 1018.01 ± 0.17 kg/m3
- mass density (333.15 K, x1 = 0.1007): 1043.55 ± 0.21 kg/m3
- mass density (333.15 K, x1 = 0.1976): 1072.05 ± 0.3 kg/m3
- mass density (333.15 K, x1 = 0.3006): 1088.55 ± 0.4 kg/m3
- mass density (333.15 K, x1 = 0.3917): 1097.24 ± 0.49 kg/m3
- mass density (333.15 K, x1 = 0.5001): 1103.8 ± 0.61 kg/m3
- mass density (333.15 K, x1 = 0.5834): 1107.26 ± 0.7 kg/m3
- mass density (333.15 K, x1 = 0.6969): 1110.55 ± 0.82 kg/m3
- mass density (333.15 K, x1 = 0.7942): 1112.72 ± 0.93 kg/m3
- mass density (333.15 K, x1 = 0.9047): 1114.57 ± 1.1 kg/m3
- mass density (333.15 K, x1 = 0.9493): 1115.4 ± 1.1 kg/m3
- mass density (333.15 K, x1 = 1): 1116.11 ± 1.1 kg/m3
- viscosity (343.15 K, x1 = 0.0499): 0.67 ± 0.021 mPa·s
- viscosity (343.15 K, x1 = 0.1007): 0.857 ± 0.026 mPa·s
- viscosity (343.15 K, x1 = 0.1976): 1.27 ± 0.04 mPa·s
- viscosity (343.15 K, x1 = 0.3006): 1.8 ± 0.05 mPa·s
- viscosity (343.15 K, x1 = 0.3917): 2.05 ± 0.06 mPa·s
- viscosity (343.15 K, x1 = 0.5001): 2.26 ± 0.07 mPa·s
- viscosity (343.15 K, x1 = 0.5834): 2.33 ± 0.07 mPa·s
- viscosity (343.15 K, x1 = 0.6969): 2.37 ± 0.07 mPa·s
- viscosity (343.15 K, x1 = 0.7942): 2.52 ± 0.08 mPa·s
- viscosity (343.15 K, x1 = 0.9047): 2.67 ± 0.08 mPa·s
- viscosity (343.15 K, x1 = 0.9493): 2.67 ± 0.08 mPa·s
- viscosity (343.15 K, x1 = 1): 2.68 ± 0.08 mPa·s
- mass density (343.15 K, x1 = 0.0499): 1011.38 ± 0.17 kg/m3
- mass density (343.15 K, x1 = 0.1007): 1036.08 ± 0.2 kg/m3
- mass density (343.15 K, x1 = 0.1976): 1063.72 ± 0.29 kg/m3
- mass density (343.15 K, x1 = 0.3006): 1079.83 ± 0.4 kg/m3
- mass density (343.15 K, x1 = 0.3917): 1088.36 ± 0.49 kg/m3
- mass density (343.15 K, x1 = 0.5001): 1094.88 ± 0.6 kg/m3
- mass density (343.15 K, x1 = 0.5834): 1098.33 ± 0.69 kg/m3
- mass density (343.15 K, x1 = 0.6969): 1101.67 ± 0.81 kg/m3
- mass density (343.15 K, x1 = 0.7942): 1103.88 ± 0.92 kg/m3
- mass density (343.15 K, x1 = 0.9047): 1105.79 ± 1 kg/m3
- mass density (343.15 K, x1 = 0.9493): 1106.66 ± 1.1 kg/m3
- mass density (343.15 K, x1 = 1): 1107.39 ± 1.1 kg/m3
